{
  "source": "patent US20220348590A1",
  "about": "“CYCLOOXYGENASE-2 INHIBITORS AND USES THEREOF” (The Board Institute, Inc., priority 2019, published 2022)",
  "key": {"COX2 [1]": {"molecular_target": "T1, COX2 (Rattus norvegicus, UniProt P35355)", "T1 construct": "in-vitro autoradiography in rat brain slices; from tissue; host or cells: rat brain slices", "T1 sequence (P35355 18-604)": "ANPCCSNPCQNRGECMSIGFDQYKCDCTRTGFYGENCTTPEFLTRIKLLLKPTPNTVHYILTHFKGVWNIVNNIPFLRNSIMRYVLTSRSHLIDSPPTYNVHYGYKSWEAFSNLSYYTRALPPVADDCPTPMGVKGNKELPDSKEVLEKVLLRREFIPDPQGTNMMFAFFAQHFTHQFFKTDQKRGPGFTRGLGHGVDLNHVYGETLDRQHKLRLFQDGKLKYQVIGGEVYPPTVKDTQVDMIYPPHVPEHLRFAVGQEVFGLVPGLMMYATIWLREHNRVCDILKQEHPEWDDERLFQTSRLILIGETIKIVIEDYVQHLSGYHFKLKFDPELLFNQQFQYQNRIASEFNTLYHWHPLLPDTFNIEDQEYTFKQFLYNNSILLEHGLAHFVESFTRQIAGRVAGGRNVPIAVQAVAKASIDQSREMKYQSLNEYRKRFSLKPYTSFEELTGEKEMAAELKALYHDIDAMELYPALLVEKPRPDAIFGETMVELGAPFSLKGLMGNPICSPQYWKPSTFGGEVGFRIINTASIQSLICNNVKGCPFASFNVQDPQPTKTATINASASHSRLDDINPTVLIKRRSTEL", "test": "in-vitro autoradiography in rat brain slices (self-block)", "type": "binding", "details": "rat brain slices in vitro autoradiography, self-block, compared to earlier tracers", "excerpt": "Three ligands have been evaluated with in-vitro autoradiography in rat brain slices. Radiolabeling was accomplished via methylation of either a sulfinate precursor ([^11C]Rofecoxib), hydroxyl precursor ([^11C]MC1) or thiol precursor ([^11C]98) using [^11C]-methyl iodide and offers chemical flexibility for radiolabeling of future candidates. […] This translated into a ˜2-fold increase in COX2 specific binding in a rat brain slice in-vitro autoradiography. […] These properties enable us to better understand the contribution of potency and free fraction to the ligand's specific binding.\nThree newly synthesized COX2 ligands were successfully radiolabeled using this strategy and first evaluated by in-vitro autoradiography in rat brain slices using self-block experiments (FIG. 5). […] [^11C]36 was also evaluated for specific binding using self-block experiments in human post-mortem brain tissues (globus pallidus) from three Huntington's disease (HD) patients (FIG. 6). COX2 protein levels were quantified using immunostaining and defined as high, medium and low, respectively."}, "COX2 [2]": {"molecular_target": "T1, COX2", "test": "rat in-vivo PET imaging (brain pharmacokinetics, self-block)"}, "[3]": {"test": "PET imaging in non-human primate (baboon)", "type": "in vivo", "excerpt": "This ideal pharmacokinetic profile in non-human primate positions these two optimized lead radiotracers for further evaluation using kinetic modeling with an arterial plasma input function and correction for plasma fraction unbound to obtain total volume of distribution (VT), the gold standard measure for PET quantification."}},
  "note": "Entries after “also recorded” stand apart in the source; their conditions may differ.",
  "data": [
    {"smiles": "CS(=O)(=O)c1ccc(-c2cccc(NCc3ccoc3)n2)cc1", "note": "[[^11C]47]", "values": [
      {"measurement": "specific binding", "setting": "COX2 [1]", "result": "significantly increased specific binding"},
      {"measurement": "specific binding in vivo", "setting": "COX2 [2]; rat PET, self-block experiment, between 30-60 minutes", "result": "modest but consistent specific binding"},
      {"measurement": "brain pharmacokinetic (brain uptake and clearance)", "setting": "COX2 [2]; rat in-vivo PET imaging", "result": "high and rapid brain uptake followed by fast clearance"},
      {"measurement": "brain uptake and clearance", "setting": "[3]", "result": "high, fast and homogeneous brain uptake along with fast clearance; also recorded: high, rapid and homogeneous brain uptake followed by fast clearance"}
    ]}
  ]
}
